The results in this text go back to patent publication US6846844B2, “Compounds and compositions for delivering active agents” (Emisphere Technologies, Inc., priority 2000, dated 2005).

Broadly, the melting point is the temperature, or range, at which the solid turns liquid.

Data set [1] in a line: Intracolonic delivery of heparin with delivery agent compound, activated partial thromboplastin time (APTT). The format is in vivo, Sprague-Dawley rats. Conditions: rats, intracolonic (IC); compound dose 50 mg/kg, heparin dose 25 mg/kg, volume dose 1 ml/kg; five rats; baseline about 20 sec. Here is the method:
Intracolonic (IC) dosing solutions containing a delivery agent compound and heparin sodium USP in 25% aqueous propylene glycol were prepared. Either the sodium salt of the delivery agent compound was used or the free acid was converted to the sodium salt with one equivalent of sodium hydroxide. Typically, the delivery agent compound and heparin (about 166-182 IU/mg) were mixed by vortex as dry powders. This dry mixture was dissolved in 25% v/v aqueous propylene glycol, vortexed and placed in a sonicator (about 37° C.). The pH was adjusted to about 7 (6.5 to 8.5) with aqueous NaOH (2N). The dosing solution was sonicated to produce a clear solution. The final volume was adjusted to 3.0 mL. The final delivery agent compound dose, heparin dose and volume dose amounts are listed below in Table 2.
The typical dosing and sampling protocols were as follows. […]
Citrated blood samples were collected by cardiac puncture following the administration of ketamine (88 mg/kg), typically at time=0.25, 0.5, 1.0 and 1.5 hours. Heparin activity was determined by utilizing the activated partial thromboplastin time (APTT) according to the method of Henry, J. B., Clinical Diagnosis and Management by Laboratory Methods, Philadelphia, Pa., W. B. Saunders (1979). […]

`Cc1c(Cl)cc(NC(=O)CC(C)CC(=O)O)c(O)c1Cl` (stereo not drawn) [Compound 1, 3R-5-[(3,5-dichloro-2-hydroxy-4-methylphenyl)amino]-3-methyl-5-oxopentanoic acid] displayed a melting point of 171 to 173 °C. The “Mean Peak APTT (sec) ± SD” value in data set [1] is 205.8 ± 32.4 s.

Consider `Cc1ccc(NC(=O)C[C@@H](C)CC(=O)O)c(O)c1` [Compound 2, (3R)-5-[(2-hydroxy-4-methylphenyl)amino]-3-methyl-5-oxo-pentanoic acid], for which the melting point was in the range of 117 to 118 °C.
